Measurements as given in ChEMBL document CHEMBL4017483, “Potent and selective oxytocin receptor agonists without disulfide bridges” (Bioorg Med Chem Lett, 2017).
Bridge positions count the residues as written; N and C are the ends. Square brackets hold non-standard residues; d marks the D form. Peptide text beside a SMILES is read from it. NMeS = CN[C@@H](CO)C(=O)O; NMeA = CN[C@@H](C)C(=O)O; βAla = NCCC(=O)O; Mpa = O=C(O)CCS; Sar = CNCC(=O)O

How the values were obtained:
Oxytocin receptor = target: T1, Oxytocin receptor (Homo sapiens, UniProt P30559); assay: Agonist activity at human OTR expressed in CHO cells assessed as calcium mobilization measured after 30 mins by Fluo-4-AM dye based FLIPR assay; type: functional, cell-based
T1 sequence (P30559 whole entry): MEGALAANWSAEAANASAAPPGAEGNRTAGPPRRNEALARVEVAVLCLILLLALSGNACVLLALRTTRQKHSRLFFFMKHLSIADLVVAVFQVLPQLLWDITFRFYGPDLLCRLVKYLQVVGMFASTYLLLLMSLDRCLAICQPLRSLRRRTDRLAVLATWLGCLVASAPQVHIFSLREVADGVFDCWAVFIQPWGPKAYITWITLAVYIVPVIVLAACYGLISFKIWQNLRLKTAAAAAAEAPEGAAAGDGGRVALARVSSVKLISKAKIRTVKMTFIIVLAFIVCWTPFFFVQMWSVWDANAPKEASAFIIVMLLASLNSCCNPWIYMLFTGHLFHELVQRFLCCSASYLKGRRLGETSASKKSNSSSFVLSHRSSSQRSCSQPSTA

Vasopressin V1a receptor = Vasopressin V1a receptor (Homo sapiens, UniProt P37288); assay: Agonist activity at human V1a receptor expressed in CHO cells assessed as calcium mobilization measured after 30 mins by Fluo-4-AM dye based FLIPR assay; type: cell-based
Vasopressin V1b receptor = target: T2, Vasopressin V1b receptor (Homo sapiens, UniProt P47901); assay: Agonist activity at human V1b receptor expressed in CHO cells assessed as calcium mobilization measured after 30 mins by Fluo-4-AM dye based FLIPR assay; type: cell-based
T2 sequence (P47901 whole entry): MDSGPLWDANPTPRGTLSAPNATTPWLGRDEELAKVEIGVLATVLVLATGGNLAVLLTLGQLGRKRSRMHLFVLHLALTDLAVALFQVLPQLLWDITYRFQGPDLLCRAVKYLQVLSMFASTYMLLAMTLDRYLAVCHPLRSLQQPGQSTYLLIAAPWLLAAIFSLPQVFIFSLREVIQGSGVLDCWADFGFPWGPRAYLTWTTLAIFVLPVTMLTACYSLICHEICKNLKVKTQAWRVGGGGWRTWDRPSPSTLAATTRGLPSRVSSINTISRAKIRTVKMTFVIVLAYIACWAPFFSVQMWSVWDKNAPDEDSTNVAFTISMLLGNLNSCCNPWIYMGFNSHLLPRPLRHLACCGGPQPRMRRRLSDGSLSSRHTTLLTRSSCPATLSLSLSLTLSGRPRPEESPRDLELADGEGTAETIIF

Homo sapiens [1] = species: Homo sapiens; assay: Selectivity ratio of EC50 for human V1a receptor to EC50 for human OTR
Homo sapiens [2] = species: Homo sapiens; assay: Selectivity ratio of EC50 for human V1b receptor to EC50 for human OTR

Sequence of Vasopressin V1a receptor (P37288 whole entry): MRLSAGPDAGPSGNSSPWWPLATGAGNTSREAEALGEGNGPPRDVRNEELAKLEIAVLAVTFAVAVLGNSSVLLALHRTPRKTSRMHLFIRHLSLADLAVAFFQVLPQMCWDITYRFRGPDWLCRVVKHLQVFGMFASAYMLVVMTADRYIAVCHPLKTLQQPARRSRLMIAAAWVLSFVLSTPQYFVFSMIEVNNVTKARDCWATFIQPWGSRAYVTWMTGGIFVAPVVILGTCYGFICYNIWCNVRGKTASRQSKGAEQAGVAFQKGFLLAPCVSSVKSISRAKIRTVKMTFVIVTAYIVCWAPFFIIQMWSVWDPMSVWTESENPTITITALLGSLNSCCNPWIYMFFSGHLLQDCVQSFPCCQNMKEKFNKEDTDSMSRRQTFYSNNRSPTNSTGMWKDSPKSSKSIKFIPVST

Row | SMILES | EC50 (Oxytocin receptor) | EC50 (Vasopressin V1a receptor) | EC50 (Vasopressin V1b receptor) | Ratio EC50 (Homo sapiens [1]) | Ratio EC50 (Homo sapiens [2])
1 | CC[C@H](C)[C@@H]1NC(=O)[C@H](Cc2ccc(O)cc2)NC(=O)CCSSC[C@@H](C(=O)N2CCC[C@H]2C(=O)N[C@@H](CO)C(=O)NCC(N)=O)NC(=O)[C@H](CC(N)=O)NC(=O)[C@H](CCC(N)=O)NC1=O ([Mpa]YIQNCPSG-NH2; disulfide 1-6) | 0.056 nM | > 100 nM | 0.65 nM | > 1000 | 12
2 | CC[C@H](C)[C@@H]1NC(=O)[C@H](Cc2ccc(O)cc2)NC(=O)CCSSC[C@@H](C(=O)N2CCC[C@H]2C(=O)N[C@H](C(=O)NCC(N)=O)C(C)C)NC(=O)[C@H](CC(N)=O)NC(=O)[C@H](CCC(N)=O)NC1=O ([Mpa]YIQNCPVG-NH2; disulfide 1-6) | 0.014 nM | 5.1 nM | 1.3 nM | 360 | 93
3 | CC[C@H](C)[C@@H]1NC(=O)[C@H](Cc2ccc(O)cc2)NC(=O)CCSSC[C@@H](C(=O)N[C@@H](CCCNC(=N)N)C(=O)N[C@@H](CC(C)C)C(=O)NCC(N)=O)NC(=O)[C@H](CC(N)=O)NC(=O)[C@H](CCC(N)=O)NC1=O ([Mpa]YIQNCRLG-NH2; disulfide 1-6) | 1.5 nM | > 100 nM | > 100 nM | > 10 | > 10
4 | CC[C@H](C)[C@@H]1NC(=O)[C@H](Cc2ccc(O)cc2)NC(=O)CCSSC[C@@H](C(=O)N[C@@H](CO)C(=O)N[C@@H](CC(C)C)C(=O)NCC(N)=O)NC(=O)[C@H](CC(N)=O)NC(=O)[C@H](CCC(N)=O)NC1=O ([Mpa]YIQNCSLG-NH2; disulfide 1-6) | 0.082 nM | > 100 nM | > 100 nM | > 1000 | > 1000
5 | CC[C@H](C)[C@@H]1NC(=O)[C@H](Cc2ccc(O)cc2)NC(=O)CCSSC[C@@H](C(=O)N(C)[C@@H](C)C(=O)N[C@@H](CC(C)C)C(=O)NCC(N)=O)NC(=O)[C@H](CC(N)=O)NC(=O)[C@H](CCC(N)=O)NC1=O ([Mpa]YIQNC[NMeA]LG-NH2; disulfide 1-6) | 0.11 nM | > 100 nM | > 100 nM | > 100 | > 100
6 | CC[C@H](C)[C@@H]1NC(=O)[C@H](Cc2ccc(O)cc2)NC(=O)CCSSC[C@@H](C(=O)N(C)[C@@H](CO)C(=O)N[C@@H](CC(C)C)C(=O)NCC(N)=O)NC(=O)[C@H](CC(N)=O)NC(=O)[C@H](CCC(N)=O)NC1=O ([Mpa]YIQNC[NMeS]LG-NH2; disulfide 1-6) | 0.042 nM | > 100 nM | > 100 nM | > 1000 | > 1000
7 | CC[C@H](C)[C@@H]1NC(=O)[C@H](Cc2ccc(O)cc2)NC(=O)CCSSC[C@@H](C(=O)N(C)CC(=O)N[C@@H](CC(C)C)C(=O)NCC(N)=O)NC(=O)[C@H](CC(N)=O)NC(=O)[C@H](CCC(N)=O)NC1=O ([Mpa]YIQNC[Sar]LG-NH2; disulfide 1-6) | 0.0069 nM | > 100 nM | > 100 nM | > 10000 | > 10000
8 | CC[C@H](C)[C@@H]1NC(=O)[C@H](Cc2ccc(O)cc2)NC(=O)CCSSC[C@@H](C(=O)N2CCC[C@H]2C(=O)N[C@@H](CC(C)C)C(=O)NCC(N)=O)NC(=O)[C@H](CO)NC(=O)[C@H](CCC(N)=O)NC1=O ([Mpa]YIQSCPLG-NH2; disulfide 1-6) | 12 nM | > 100 nM | > 100 nM | > 8 | > 8
9 | CC[C@H](C)[C@@H]1NC(=O)[C@H](Cc2ccc(O)cc2)NC(=O)CCSSC[C@@H](C(=O)N2CCC[C@H]2C(=O)N[C@@H](CC(C)C)C(=O)NCC(N)=O)NC(=O)[C@H](CC(N)=O)NC(=O)[C@H](CCCNC(=N)N)NC1=O ([Mpa]YIRNCPLG-NH2; disulfide 1-6) | 1.2 nM | > 100 nM | 9 nM | > 10 | 7.5
10 | CC[C@H](C)[C@@H]1NC(=O)[C@H](Cc2ccc(O)cc2)NC(=O)CCSSC[C@@H](C(=O)N2CCC[C@H]2C(=O)N[C@@H](CC(C)C)C(=O)NCC(N)=O)NC(=O)[C@H](CC(N)=O)NC(=O)[C@H](CO)NC1=O ([Mpa]YISNCPLG-NH2; disulfide 1-6) | 0.072 nM | > 100 nM | 8.9 nM | > 1000 | 120
11 | CC(C)C[C@@H]1NC(=O)[C@H](Cc2ccc(O)cc2)NC(=O)CCSSC[C@@H](C(=O)N2CCC[C@H]2C(=O)N[C@@H](CC(C)C)C(=O)NCC(N)=O)NC(=O)[C@H](CC(N)=O)NC(=O)[C@H](CCC(N)=O)NC1=O ([Mpa]YLQNCPLG-NH2; disulfide 1-6) | 0.19 nM | > 100 nM | 3.9 nM | > 100 | 21
12 | CC(C)C[C@H](NC(=O)[C@@H]1CCCN1C(=O)[C@@H]1CSSCCC(=O)N[C@@H](Cc2ccc(O)cc2)C(=O)N[C@@H](CO)C(=O)N[C@@H](CCC(N)=O)C(=O)N[C@@H](CC(N)=O)C(=O)N1)C(=O)NCC(N)=O ([Mpa]YSQNCPLG-NH2; disulfide 1-6) | 40 nM | > 100 nM | > 100 nM | > 2 | > 2
13 | CC[C@H](C)[C@@H]1NC(=O)[C@H](Cc2ccc(O)cc2)NC(=O)CCNC(=O)C[C@@H](C(=O)N2CCC[C@H]2C(=O)N[C@@H](CC(C)C)C(=O)NCC(N)=O)NC(=O)[C@H](CC(N)=O)NC(=O)[C@H](CCC(N)=O)NC1=O ([βAla]YIQNDPLG-NH2; lactam N-6) | 13 nM | > 100 nM | > 100 nM | > 7.7 | > 7.7
